Results from publication PMC6416464 (Drug Metabolism Letters, 2018).

Tests used:
[1] = Metabolic stability, incubation with human liver cytosol; type: in vitro ADME; details: 1 µM test compound, 1 mg/mL protein
CYP3A4 [2] = biological target: T1, CYP3A4 (Homo sapiens, UniProt P08684); details: human, microsomes, 10 µM, pH 7.4
[3] = cited from earlier work
CYP3A4 [4] = biological target: T1, CYP3A4; test: in vitro; details: microsomes, pH 7.4, % Inhibition of Control Activity CYP3A4 (substrate, testosterone)
CYP3A4 [5] = biological target: T1, CYP3A4; test: in vitro; details: microsomes, pH 7.4
[6] = Metabolic stability, incubation with human liver microsomes; details: 1 µM test compound, 0.5 mg/mL protein
CYP1A2 = biological target: T2, CYP1A2 (Homo sapiens, UniProt P05177); test: CYP inhibition in human liver microsomes, CYP1A2
T2 sequence (P05177 1-516): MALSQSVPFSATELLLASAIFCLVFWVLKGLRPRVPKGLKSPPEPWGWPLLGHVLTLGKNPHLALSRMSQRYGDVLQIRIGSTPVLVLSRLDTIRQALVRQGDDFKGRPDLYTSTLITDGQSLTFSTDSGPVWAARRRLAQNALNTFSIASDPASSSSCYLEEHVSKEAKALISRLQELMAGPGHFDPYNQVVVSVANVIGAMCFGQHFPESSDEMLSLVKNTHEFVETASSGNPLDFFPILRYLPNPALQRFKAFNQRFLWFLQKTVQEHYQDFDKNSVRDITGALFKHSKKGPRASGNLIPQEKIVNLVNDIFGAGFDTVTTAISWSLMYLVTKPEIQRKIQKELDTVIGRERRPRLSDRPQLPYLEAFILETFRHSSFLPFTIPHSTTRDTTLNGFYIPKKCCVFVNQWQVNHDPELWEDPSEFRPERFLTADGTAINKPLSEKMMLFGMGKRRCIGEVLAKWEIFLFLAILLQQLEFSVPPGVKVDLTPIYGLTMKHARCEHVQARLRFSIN

CYP2C8 = biological target: T3, CYP2C8 (Homo sapiens, UniProt P10632); test: CYP inhibition in human liver microsomes, CYP2C8; details: for inhibition at 2 µM / inhibition at 10 µM: human, human liver microsomes, pH 7.4, probe paclitaxel
T3 sequence (P10632 1-490): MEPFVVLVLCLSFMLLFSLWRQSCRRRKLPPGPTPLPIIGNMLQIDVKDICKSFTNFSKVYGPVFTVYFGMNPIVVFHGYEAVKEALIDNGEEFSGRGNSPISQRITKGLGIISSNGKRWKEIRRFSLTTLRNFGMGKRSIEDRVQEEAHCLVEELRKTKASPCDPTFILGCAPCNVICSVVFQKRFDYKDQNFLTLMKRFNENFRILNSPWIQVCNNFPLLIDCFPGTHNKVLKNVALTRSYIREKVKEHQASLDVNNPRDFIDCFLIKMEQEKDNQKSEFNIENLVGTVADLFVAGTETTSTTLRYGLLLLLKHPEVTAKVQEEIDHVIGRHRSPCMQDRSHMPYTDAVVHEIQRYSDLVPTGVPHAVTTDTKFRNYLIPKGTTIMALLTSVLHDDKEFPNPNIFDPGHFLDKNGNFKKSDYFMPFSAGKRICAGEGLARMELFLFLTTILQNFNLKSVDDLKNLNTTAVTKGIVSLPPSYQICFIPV

CYP2C9 = CYP2C9 (Homo sapiens, UniProt P11712); test: CYP inhibition in human liver microsomes, CYP2C9; details: for % Inhibition of Control Activity CYP2C9: inhibitor 10 µM, HLM, NI: No Inhibitin, 10 µM
CYP2C9, sequence (P11712 whole entry): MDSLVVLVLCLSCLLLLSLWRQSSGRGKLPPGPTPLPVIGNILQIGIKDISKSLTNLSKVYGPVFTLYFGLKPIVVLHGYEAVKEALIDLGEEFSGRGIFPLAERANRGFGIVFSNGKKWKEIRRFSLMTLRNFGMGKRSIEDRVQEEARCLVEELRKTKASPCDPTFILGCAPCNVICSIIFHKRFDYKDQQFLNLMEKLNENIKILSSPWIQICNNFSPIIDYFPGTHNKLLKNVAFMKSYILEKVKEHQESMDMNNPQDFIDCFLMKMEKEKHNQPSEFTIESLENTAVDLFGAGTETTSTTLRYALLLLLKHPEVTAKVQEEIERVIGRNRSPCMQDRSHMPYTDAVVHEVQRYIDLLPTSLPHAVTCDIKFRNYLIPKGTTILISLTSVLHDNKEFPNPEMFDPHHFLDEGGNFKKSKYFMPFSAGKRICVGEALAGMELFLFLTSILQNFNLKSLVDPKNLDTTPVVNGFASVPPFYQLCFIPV

[7] = pulmonary tuberculosis patients; cited from earlier work
CYP2C19 = CYP2C19 (Homo sapiens, UniProt P33261); test: CYP inhibition in human liver microsomes, CYP2C19
CYP2C19, sequence (P33261 whole entry): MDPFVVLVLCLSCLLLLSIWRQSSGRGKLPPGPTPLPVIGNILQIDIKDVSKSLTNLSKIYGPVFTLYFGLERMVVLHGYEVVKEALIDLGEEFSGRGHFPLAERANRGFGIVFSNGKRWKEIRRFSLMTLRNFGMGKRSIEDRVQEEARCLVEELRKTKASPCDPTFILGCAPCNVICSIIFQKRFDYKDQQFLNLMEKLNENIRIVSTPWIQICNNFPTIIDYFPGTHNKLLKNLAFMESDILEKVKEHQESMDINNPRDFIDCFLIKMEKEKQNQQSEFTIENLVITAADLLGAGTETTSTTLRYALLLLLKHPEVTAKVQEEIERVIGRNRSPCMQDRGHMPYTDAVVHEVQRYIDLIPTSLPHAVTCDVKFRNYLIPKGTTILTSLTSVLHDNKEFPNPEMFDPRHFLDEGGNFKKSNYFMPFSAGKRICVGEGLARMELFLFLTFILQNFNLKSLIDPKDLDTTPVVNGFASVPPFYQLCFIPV

rCYP1A2 = biological target: T4, rCYP1A2 (Homo sapiens, UniProt P05177); test: Metabolic stability / reaction phenotyping with recombinant human CYP1A2; details: for % Metabolized at 30 min Incubation with Human Liver Fractions/Enzymes rCYP1A2: 1 µM test compound, 100 pmol/mL; for % Contribution of CYP Enzymes (fmCYP) in Metabolism, CYP1A2 / Predicted Microsomal Clint, CYP1A2 / rCYP Clint, CYP1A2: human, recombinant human CYP1A2, 1 µM, pH 7.4
T4 sequence (P05177 1-516): T2 sequence (P05177 1-516)

rCYP2C8 = biological target: T5, rCYP2C8 (Homo sapiens, UniProt P10632); test: Metabolic stability / reaction phenotyping with recombinant human CYP2C8; details: for % Metabolized at 30 min Incubation with Human Liver Fractions/Enzymes rCYP2C8: 1 µM test compound, 100 pmol/mL
T5 sequence (P10632 1-490): T3 sequence (P10632 1-490)

rCYP2C9 = rCYP2C9 (Homo sapiens, UniProt P11712); test: Metabolic stability / reaction phenotyping with recombinant human CYP2C9; details: for % Metabolized at 30 min Incubation with Human Liver Fractions/Enzymes rCYP2C9: 1 µM test compound, 100 pmol/mL; for % Contribution of CYP Enzymes (fmCYP) in Metabolism, CYP2C9 / Predicted Microsomal Clint, CYP2C9 / rCYP Clint, CYP2C9: human, recombinant human CYP2C9, 1 µM, pH 7.4
rCYP2C9, sequence (P11712 whole entry): as the sequence (P11712 whole entry) above

rCYP2D6 = rCYP2D6 (Homo sapiens, UniProt P10635); test: Metabolic stability / reaction phenotyping with recombinant human CYP2D6; details: for % Metabolized at 30 min Incubation with Human Liver Fractions/Enzymes rCYP2D6: 1 µM test compound, 100 pmol/mL; for % Contribution of CYP Enzymes (fmCYP) in Metabolism, CYP2D6 / Predicted Microsomal Clint, CYP2D6 / rCYP Clint, CYP2D6: human, recombinant human CYP2D6, 1 µM, pH 7.4
rCYP2D6, sequence (P10635 whole entry): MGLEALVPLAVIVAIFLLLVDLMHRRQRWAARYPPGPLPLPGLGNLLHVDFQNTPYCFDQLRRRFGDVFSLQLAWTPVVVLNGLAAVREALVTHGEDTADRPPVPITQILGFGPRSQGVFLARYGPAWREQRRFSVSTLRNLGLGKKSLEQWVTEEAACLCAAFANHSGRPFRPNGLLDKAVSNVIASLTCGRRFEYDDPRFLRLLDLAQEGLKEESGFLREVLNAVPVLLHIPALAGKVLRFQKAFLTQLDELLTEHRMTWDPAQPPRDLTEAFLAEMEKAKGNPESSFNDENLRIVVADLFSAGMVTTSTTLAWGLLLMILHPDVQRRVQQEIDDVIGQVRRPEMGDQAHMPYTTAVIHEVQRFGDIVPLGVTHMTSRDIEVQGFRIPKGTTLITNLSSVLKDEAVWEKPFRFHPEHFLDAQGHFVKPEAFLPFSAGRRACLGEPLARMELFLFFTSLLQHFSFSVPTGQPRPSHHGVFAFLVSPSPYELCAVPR

rCYP2C19 = rCYP2C19 (Homo sapiens, UniProt P33261); test: Metabolic stability / reaction phenotyping with recombinant human CYP2C19; details: for % Metabolized at 30 min Incubation with Human Liver Fractions/Enzymes rCYP2C19: 1 µM test compound, 100 pmol/mL; for % Contribution of CYP Enzymes (fmCYP) in Metabolism, CYP2C19 / Predicted Microsomal Clint, CYP2C19 / rCYP Clint, CYP2C19: human, recombinant human CYP2C19, 1 µM, pH 7.4
rCYP2C19, sequence (P33261 whole entry): as the sequence (P33261 whole entry) above

rCYP3A4 = rCYP3A4 (Homo sapiens, UniProt P08684)
rCYP3A4, sequence (P08684 whole entry): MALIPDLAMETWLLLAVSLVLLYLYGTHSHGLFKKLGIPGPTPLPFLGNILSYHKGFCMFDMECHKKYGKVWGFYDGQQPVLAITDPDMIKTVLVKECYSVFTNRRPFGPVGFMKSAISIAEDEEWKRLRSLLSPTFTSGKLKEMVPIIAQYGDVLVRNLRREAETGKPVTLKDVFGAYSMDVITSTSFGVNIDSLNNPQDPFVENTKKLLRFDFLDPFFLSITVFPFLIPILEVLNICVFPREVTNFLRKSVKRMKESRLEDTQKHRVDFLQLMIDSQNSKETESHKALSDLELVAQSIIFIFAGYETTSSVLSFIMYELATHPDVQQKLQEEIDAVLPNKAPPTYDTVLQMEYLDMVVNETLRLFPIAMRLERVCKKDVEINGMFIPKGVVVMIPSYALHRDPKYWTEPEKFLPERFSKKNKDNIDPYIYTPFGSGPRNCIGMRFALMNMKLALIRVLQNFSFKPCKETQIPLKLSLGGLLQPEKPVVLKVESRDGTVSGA

[8] = cited from earlier work; remark: listed apart in the source
CYP3A4 [9] = biological target: T1, CYP3A4; test: biochemical
[10] = inhibitor 10 µM, HLM, NI: No Inhibitin, 10 µM
[11] = human, recombinant human CYP2C8, 1 µM, pH 7.4
[12] = human, recombinant enzyme, pH 7.4

T1 sequence (P08684 2-503): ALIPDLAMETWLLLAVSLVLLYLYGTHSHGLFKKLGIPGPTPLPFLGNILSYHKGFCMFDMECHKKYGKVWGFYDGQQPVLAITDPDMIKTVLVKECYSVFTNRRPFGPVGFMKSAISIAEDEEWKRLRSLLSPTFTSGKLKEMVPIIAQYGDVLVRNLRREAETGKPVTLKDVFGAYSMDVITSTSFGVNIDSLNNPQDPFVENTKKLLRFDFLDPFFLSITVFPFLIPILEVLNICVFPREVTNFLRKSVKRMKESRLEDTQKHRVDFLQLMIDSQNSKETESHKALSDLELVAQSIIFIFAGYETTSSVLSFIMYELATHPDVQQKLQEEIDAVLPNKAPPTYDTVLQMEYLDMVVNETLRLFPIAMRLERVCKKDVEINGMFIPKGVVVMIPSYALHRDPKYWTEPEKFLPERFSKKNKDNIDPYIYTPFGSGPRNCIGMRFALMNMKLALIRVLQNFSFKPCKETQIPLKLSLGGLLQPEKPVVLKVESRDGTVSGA

Row | Structure (SMILES) | % Metabolized at 30 min Incubation with Human Liver Fractions/Enzymes Cytosol [1] [%] | inhibition at 2 µM (CYP3A4 [4]) [%] | inhibition at 2 µM (CYP3A4 [5]) [%] | inhibition at 10 µM (CYP3A4 [5]) [%] | % Metabolized at 30 min Incubation with Human Liver Fractions/Enzymes HLM [6] [%] | inhibition at 2 µM (CYP2C8) [%] | inhibition at 10 µM (CYP2C8) [%] | % Inhibition of Control Activity CYP2C9 (CYP2C9) [%] | % Metabolized at 30 min Incubation with Human Liver Fractions/Enzymes rCYP1A2 (rCYP1A2) [%] | % Contribution of CYP Enzymes (fmCYP) in Metabolism, CYP1A2 (rCYP1A2) [%] | Predicted Microsomal Clint, CYP1A2 (rCYP1A2) [µL/min/mg Protein] | rCYP Clint, CYP1A2 (rCYP1A2) [µL/min/pmol] | % Metabolized at 30 min Incubation with Human Liver Fractions/Enzymes rCYP2C8 (rCYP2C8) [%] | % Metabolized at 30 min Incubation with Human Liver Fractions/Enzymes rCYP2C9 (rCYP2C9) [%] | % Contribution of CYP Enzymes (fmCYP) in Metabolism, CYP2C9 (rCYP2C9) [%] | Predicted Microsomal Clint, CYP2C9 (rCYP2C9) [µL/min/mg Protein] | rCYP Clint, CYP2C9 (rCYP2C9) [µL/min/pmol] | % Metabolized at 30 min Incubation with Human Liver Fractions/Enzymes rCYP2D6 (rCYP2D6) [%] | % Contribution of CYP Enzymes (fmCYP) in Metabolism, CYP2D6 (rCYP2D6) [%] | Predicted Microsomal Clint, CYP2D6 (rCYP2D6) [µL/min/mg Protein] | also measured
1 | CCC[S+]([O-])c1ccc2[nH]c(NC(=O)OC)nc2c1 (stereo not drawn) [Albendazole sulfoxide, albendazole sulfoxide] | 0.20 | 2.48 | < 0 | < 0 | 4.23 | < 0 | < 0 | 9.49 | – | – | – | – | – | – | – | – | – | – | – | – | % Inhibition of Control Activity CYP3A4 (substrate, testosterone) (CYP3A4 [2]): 4.82%; increase of AUC ([3]; with transport inhibitors such as verapamil, quinidine and ivermectin): > 50%; % Inhibition of Control Activity CYP1A2 (CYP1A2; [10]): 22.20%
2 | CC(=O)NC[C@H]1CN(c2ccc(N3CC[S+]([O-])CC3)c(F)c2)C(=O)O1 [sutezolid sulfoxide] | – | – | – | – | – | – | – | – | – | – | – | – | – | – | – | – | – | – | – | – | metabolite to parent (sutezolid sulfoxide/ sutezolid) median concentration ratio [7]: 7.1
3 | CCCSc1ccc2nc(NC(=O)OC)[nH]c2c1 [Albendazole, albendazole, reference compound] | 0.00 | – | – | – | 50.06 | < 0 | < 0 | 12.40 | 98.92 | 74.79 | 78.510 | 1.510 | 2.43 | 5.96 | 1.87 | 1.966 | 0.020 | 64.92 | 3.33 | 3.491 | increase of exposure ([3]; with CYP3A4 inhibitor grapefruit juice): 3.2 fold; % Inhibition of Control Activity CYP2C19 (CYP2C19; [10]): 4.20%; % Contribution of CYP Enzymes (fmCYP) in Metabolism, CYP2C8 (rCYP2C8; [11]): 0.50%; Predicted Microsomal Clint, CYP2C8 (rCYP2C8; [11]): 0.525 µL/min/mg Protein; rCYP Clint, CYP2C8 (rCYP2C8; [11]): 0.008 µL/min/pmol; rCYP Clint, CYP2D6 (rCYP2D6): 0.349 µL/min/pmol; % Metabolized at 30 min Incubation with Human Liver Fractions/Enzymes rCYP2C19 (rCYP2C19): 95.76%; % Contribution of CYP Enzymes (fmCYP) in Metabolism, CYP2C19 (rCYP2C19): 19.06%; Predicted Microsomal Clint, CYP2C19 (rCYP2C19): 20.011 µL/min/mg Protein; rCYP Clint, CYP2C19 (rCYP2C19): 1.053 µL/min/pmol
4 | CSc1nc2cc(Cl)c(Oc3cccc(Cl)c3Cl)cc2[nH]1 [Triclabendazole, reference compound] | 12.40 | 13.5 | < 0 | < 0 | 51.68 | 7.09 | 79.7 | – | 97.14 | 53.74 | 61.600 | 1.185 | 0.00 | 55.00 | 22.29 | 25.548 | 0.266 | 73.66 | 3.88 | 4.448 | % Metabolized at 30 min Incubation with Human Liver Fractions/Enzymes rCYP3A4 (rCYP3A4; 1 µM test compound, 100 pmol/mL, 30 min): 11.70%; Predicted Microsomal Clint, CYP3A4 (rCYP3A4; human, pH 7.4): 4.604 µL/min/mg Protein; % Contribution of CYP Enzymes (fmCYP) in Metabolism, CYP3A4 (rCYP3A4; [12]): 4.02%; rCYP Clint, CYP3A4 (rCYP3A4; [12]): 0.041 µL/min/pmol; Cmax ([8]; human patients at therapeutic doses of triclabendazole): 1.16 µM; peak concentration ([8]; humans, standard dose of triclabendazole of 10 mg/kg): 1.16 µM; inhibition at 10 µM (CYP3A4 [4]): 52.9%; IC50 (CYP3A4 [9]): 15.1 µM; IC50 (CYP1A2): 1.07 µM; IC50 (CYP2C8; IC50 CYP 2C8, HLM): 3.31 µM; IC50 (CYP2C9): 1.17 µM; IC50 (CYP2C19): 0.25 µM; rCYP Clint, CYP2D6 (rCYP2D6): 0.445 µL/min/pmol; % Metabolized at 30 min Incubation with Human Liver Fractions/Enzymes rCYP2C19 (rCYP2C19): 94.55%; % Contribution of CYP Enzymes (fmCYP) in Metabolism, CYP2C19 (rCYP2C19): 16.07%; Predicted Microsomal Clint, CYP2C19 (rCYP2C19): 18.415 µL/min/mg Protein; rCYP Clint, CYP2C19 (rCYP2C19): 0.969 µL/min/pmol
